Consider 8 compounds from ChEMBL document CHEMBL5620397, “Design, synthesis and biological evaluation of 3-substituted-2-thioxothiazolidin-4-one (rhodanine) derivatives as antitubercular agents against Mycobacterium tuberculosis protein tyrosine phosphatase B” (Eur J Med Chem, 2023).

Data set [1] has as its target Triple specificity protein phosphatase PtpB (Mycobacterium tuberculosis (strain ATCC 25618 / H37Rv)) (UniProt I6WXK4). Kind of data set: (§1) Inhibition of Mycobacterium tuberculosis H37Rv ptpB expressed in Escherichia coli BL21(DE3) at 50 uM using pNPP as substrate preincubated for 10 mins followed by substrate addition and measured for 5 mins by spectrophotometer analysis relative to control. The settings on record: time 15.0 min.

Data set [2] concerns the target T1, Phosphotyrosine protein phosphatase (Mycobacterium tuberculosis, UniProt A0A045ISB3).
T1 sequence (A0A045ISB3 whole entry): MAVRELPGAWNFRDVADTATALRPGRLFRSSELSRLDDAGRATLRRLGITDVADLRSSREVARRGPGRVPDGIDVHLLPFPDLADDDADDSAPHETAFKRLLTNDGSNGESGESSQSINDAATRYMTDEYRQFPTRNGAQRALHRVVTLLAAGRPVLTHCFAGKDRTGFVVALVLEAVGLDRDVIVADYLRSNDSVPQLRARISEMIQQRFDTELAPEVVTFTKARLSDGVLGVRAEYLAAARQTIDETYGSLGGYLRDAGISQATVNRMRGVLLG
The data set is described as follows: Inhibition of Mycobacterium tuberculosis ptpB.

The nature of data set [3]: Metabolic stability in mouse liver microsomes assessed as intrinsic clearance per mg protein preincubated for 5 mins followed by NADPH addition and measured upto 30 mins by LC-MS/MS assay. It counts as ADME, Microsome. The settings on record: time < 35 min, read-out: CLH. A general note: Liver microsomes are vesicles of endoplasmic reticulum, rich in cytochrome P450 enzymes.

For data set [4], the system named is Vero. The data set is described as follows: cells. As to conditions: Chlorocebus sabaeus, 48 h.
Description: Cytotoxicity against african green monkey Vero cells after 48 hrs by MTT assay
The test system of data set [5] is Mycobacterium tuberculosis. The data set is described as follows: Antituberculosis activity against Mycobacterium tuberculosis H37Rv by microplate alamar blue assay. It is filed as functional. (Resazurin is reduced to fluorescent resorufin, in cell work by metabolically active cells.)
Data set [6] concerns the target T2, Tyrosine-protein phosphatase non-receptor type 1 (Homo sapiens, UniProt P18031).
T2 sequence (P18031 whole entry): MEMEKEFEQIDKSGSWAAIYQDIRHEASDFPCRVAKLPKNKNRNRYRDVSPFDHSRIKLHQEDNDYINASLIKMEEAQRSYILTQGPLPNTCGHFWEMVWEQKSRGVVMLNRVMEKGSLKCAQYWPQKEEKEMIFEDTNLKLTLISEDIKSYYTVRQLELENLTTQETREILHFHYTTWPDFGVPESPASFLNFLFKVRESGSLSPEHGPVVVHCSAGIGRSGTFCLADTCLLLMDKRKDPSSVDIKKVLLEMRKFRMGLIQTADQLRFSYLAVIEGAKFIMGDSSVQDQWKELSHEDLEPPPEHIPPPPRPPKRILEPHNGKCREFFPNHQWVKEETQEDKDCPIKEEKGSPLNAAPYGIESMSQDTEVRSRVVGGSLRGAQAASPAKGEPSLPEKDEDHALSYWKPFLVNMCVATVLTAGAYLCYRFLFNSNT
Kind of data set: Inhibition of recombinant human PTP1B using pNPP as substrate preincubated for 5 mins followed by substrate addition and measured for 10 mins. It is filed as toxicity.

Data set [7] is described as follows: Metabolic stability in human liver microsomes assessed as substrate remaining preincubated for 5 mins followed by NADPH addition and measured upto 30 mins by LC-MS/MS assay. The settings on record: time < 35 min, read-out: Stability. It counts as ADME, Microsome.
Data set [8] addresses T3, Low molecular weight protein-tyrosine phosphatase A (Mycobacterium tuberculosis) (UniProt P9WIA1).
T3 sequence (whole entry): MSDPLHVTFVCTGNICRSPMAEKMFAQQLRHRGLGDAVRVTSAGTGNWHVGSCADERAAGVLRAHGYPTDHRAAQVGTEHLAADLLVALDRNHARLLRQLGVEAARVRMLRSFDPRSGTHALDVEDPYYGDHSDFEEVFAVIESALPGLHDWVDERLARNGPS
Kind of data set: Inhibition of Mycobacterium tuberculosis H37Rv ptpA expressed in Escherichia coli BL21(DE3) at 10 uM using pNPP as substrate preincubated for 10 mins followed by substrate addition and measured for 5 mins by spectrophotometer analysis relative to control. As to conditions: time 15.0 min.

Data set [9] in a line: Metabolic stability in human liver microsomes in absence of NADPH by LC-MS/MS assay. It is filed as ADME, Microsome.
Data set [10] has as its system PTP1B versus M. tuberculosis ptpB. The data set is described as follows: Selectivity index, ratio of IC50 for human PTP1B to Mycobacterium tuberculosis H37Rv ptpB. It is filed as toxicity. The settings on record: read-out: Ratio IC50.
Data set [11] in a line: Metabolic stability in mouse liver microsomes in absence of NADPH by LC-MS/MS assay. It is filed as ADME, Microsome.
Data set [12] has as its system Mycobacterium tuberculosis. The data set is described as follows: Antituberculosis activity against Mycobacterium tuberculosis H37Rv in mouse J774A.1 cells assessed as reduction in intracellular bacterial burden measured after 21 days by agar plate method. It counts as functional, organism-based. The settings on record: J774.A1, dose 1-10 µg/ml, time 21.0 day.
Data set [13] can be described thus: Cytotoxicity against mouse J774.G8 cells after 48 hrs by MTT assay. The settings on record: J774.G8, 48 h. It counts as functional, cell-based.
The nature of data set [14]: Metabolic stability in human liver microsomes assessed as half life preincubated for 5 mins followed by NADPH addition and measured upto 30 mins by LC-MS/MS assay. It counts as ADME, Microsome. The settings on record: time < 35 min.
A short description of data set [15]: Metabolic stability in mouse liver microsomes assessed as substrate remaining preincubated for 5 mins followed by NADPH addition and measured upto 30 mins by LC-MS/MS assay. It is filed as ADME, Microsome. As to conditions: time < 35 min, read-out: Stability.
Data set [16] in a line: Metabolic stability in human liver microsomes assessed as intrinsic clearance per mg protein preincubated for 5 mins followed by NADPH addition and measured upto 30 mins by LC-MS/MS assay. It counts as ADME, Microsome. The settings on record: time < 35 min, read-out: CLH.
Data set [17] is described as follows: Metabolic stability in mouse liver microsomes assessed as half life preincubated for 5 mins followed by NADPH addition and measured upto 30 mins by LC-MS/MS assay. It counts as ADME, Microsome. As to conditions: time < 35 min.
Data set [18] deals with T4, Triple specificity protein phosphatase PtpB (Mycobacterium tuberculosis (strain ATCC 25618 / H37Rv), UniProt I6WXK4).
T4 sequence (I6WXK4 whole entry): T1 sequence (A0A045ISB3 whole entry)
Kind of data set: Inhibition of Mycobacterium tuberculosis H37Rv ptpB expressed in Escherichia coli BL21(DE3) using pNPP as substrate preincubated for 10 mins followed by substrate addition and measured for 5 mins by spectrophotometer analysis.

The target in data set [19] is T5, Triple specificity protein phosphatase PtpB (Mycobacterium tuberculosis (strain ATCC 25618 / H37Rv)) (UniProt I6WXK4).
T5 sequence (whole entry): T1 sequence (A0A045ISB3 whole entry)
The description is as §1. The settings on record: time 15.0 min. The source holds these as a separate data set.

Data set [20] has as its system Mycobacterium tuberculosis. The data set is described as follows: Antituberculosis activity against Mycobacterium tuberculosis H37Rv in mouse J774A.1 cells assessed as reduction in intracellular bacterial burden at 0.5 ug/ml measured after 21 days by agar plate method. The settings on record: dose 0.5 µg/ml; time 21 day. More on the design: scale not given: the % may be the effect or the level left. It counts as functional, J774.A1.

The target of data set [21] is T4, Triple specificity protein phosphatase PtpB. Kind of data set: Inhibition of Mycobacterium tuberculosis H37Rv ptpB using pNPP as substrate preincubated for 10 mins followed by substrate addition and measured for 5 mins by spectrophotometer analysis.
The subject of data set [22] is Mycobacterium tuberculosis. Kind of data set: Antituberculosis activity against Mycobacterium tuberculosis H37Rv in mouse J774A.1 cells assessed as reduction in intracellular bacterial burden at 10 ug/ml measured after 21 days by agar plate method. It counts as functional, J774.A1. On the set-up: scale not given: the % may be the effect or the level left. As to conditions: dose 10 µg/ml; time 21 day.

The nature of data set [23]: Permeability in human Caco-2 cells at 3 uM incubated for 90 mins by LC-MS/MS analysis. As to conditions: read-out: permeability. It counts as ADME, cell-based.
Data set [24] deals with T6, Low molecular weight protein-tyrosine phosphatase A (Mycobacterium tuberculosis, UniProt P9WIA1).
T6 sequence (P9WIA1 whole entry): T3 sequence (whole entry)
Kind of data set: Inhibition of Mycobacterium tuberculosis H37Rv ptpA expressed in Escherichia coli BL21(DE3) using pNPP as substrate preincubated for 10 mins followed by substrate addition and measured for 5 mins by spectrophotometer analysis.

The subject of data set [25] is Mycobacterium tuberculosis. The data set is described as follows: Antituberculosis activity against Mycobacterium tuberculosis H37Rv in mouse J774A.1 cells assessed as reduction in bacterial burden at 10 ug/ml measured after 21 days in presence of RFP by agar plate method. It counts as functional, J774.A1. On the set-up: scale not given: the % may be the effect or the level left. As to conditions: dose 10 µg/ml; time 21 day.

Values after ≈ are worked out from the molar mass of the structure shown.

Usually inhibition stands for the relative decrease from the control value, in per cent. A word on the IC50: it is the point on the concentration scale where inhibition reaches its midpoint. The term MIC denotes the lowest concentration that inhibits growth of the organism. As usually defined, the half-life is the time needed for the level to fall by half in the phase considered.

For the compound SODIUM ORTHOVANAD, the inhibition in data set [1] was 97.4%.

Compound `O=C1OC(c2ccccc2C(F)(F)F)C(c2ccc3ccccc3n2)=C1O` (configuration not stated) displayed a concentration for half-maximal inhibition (IC50) in data set [2] of 31.1 µM.

For the compound `CCCC[C@@H](C(=O)O)N1C(=O)/C(=C/c2ccc(-c3ccc(F)c(C(F)(F)F)c3)cc2)SC1=S`, the values for the microsomal CLint in data set [3] and in data set [16] were under 22.1 µL/min/mg and under 6.1 µL/min/mg, respectively. In addition, the half-inhibitory concentration (IC50) in data set [4] came out at 28.2 µg/mL (≈ 56.7 µM); in data set [6] it was 11.3 µM; in [13], 47.7 µg/mL (≈ 95.9 µM); in [18], 0.48 µM. The compound further registered an MIC in data set [5] of 31.7 µg/mL (≈ 63.7 µM). Besides, the remaining at 0.5 h is 96.9% in data set [7] and 101% in data set [15]. Moreover, the results for the inhibition in [8] and in [19] were 20.2% and 106%, respectively. The Stability entry in [9] and in [11] was “Stable” in each case. Moreover, the selectivity ratio in data set [10] turned out to be 20. Besides, the Activity result in data set [12] was “Dose-Dependent Effect”. In addition, the half-life in [14] and in data set [17] was over 1.55 h each time.

For `CO[C@H]1/C=C/O[C@@]2(C)Oc3c(C)c(O)c4c(O)c(c(/C=N/N5CCN(C)CC5)c(O)c4c3C2=O)NC(=O)/C(C)=C\C=C\[C@H](C)[C@H](O)[C@@H](C)[C@@H](O)[C@@H](C)[C@H](OC(C)=O)[C@@H]1C` [RIFAMPIN], the IC50 in data set [4] and in data set [13] was over 64 µg/mL throughout. The compound also had an MIC in data set [5] of 0.023 µg/mL (≈ 0.0279 µM). The Activity in [20] was over 85%.

In the case of `O=C1NC(=S)NC(=O)C1Cc1cc(Br)ccc1OCc1ccc(Cl)cc1`, the MIC in data set [5] is over 32 µg/mL. The compound also showed an IC50 in [21] of 22.4 µM.

Take `CCOC(=O)C1=C(C)Oc2nc(C)n(Cc3cn([C@@H]4O[C@H](COC(C)=O)[C@@H](OC(C)=O)[C@H](OC(C)=O)[C@H]4OC(C)=O)nn3)c(=O)c2C1c1cc(OC)c(OC)c(OC)c1` (some centres not stated): in [2], the 50% inhibitory concentration (IC50) was 1.56 µM.

For `CCCC[C@@H](C(=O)O)N1C(=O)/C(=C/c2ccc(-c3cccc(C(F)(F)F)c3)cc2)SC1=S`, the values for the Activity in [22], in data set [12] and in data set [25] were over 85%, “Dose-Dependent Effect” and over 95%, respectively. For the same compound, the Papp at 1.5 h, 3 µM in [23] came to 16.9 ×10⁻⁶ cm/s. For the same compound, the IC50 in data set [24] came to 4.06 µM; in data set [4] it was 32.2 µg/mL (≈ 67.1 µM); in data set [6], 4.14 µM; in [13], 50.3 µg/mL (≈ 105 µM); in data set [18], 0.64 µM. Moreover, the microsomal CLint is under 22.1 µL/min/mg in data set [3] and under 6.1 µL/min/mg in [16]. In [5], the MIC is 31.1 µg/mL (≈ 64.9 µM). Besides, the remaining at 0.5 h in [7] was found to be 95.9%; in data set [15] it was 101%. For the same compound, the Stability entry in data set [9] and in data set [11] was “Stable” each time. The selectivity ratio in data set [10] stood at 7. Also, the half-life in data set [14] and in [17] was over 1.55 h each time. Moreover, in data set [19], the inhibition amounted to 104%.

`Cc1onc(C(=O)O)c1-c1cccc(-c2cc(Cl)c(O)c(Cl)c2)c1`: in data set [2], the IC50 was determined as 2.98 µM.
